Measurements: the NIST ThermoML archive (doi:10.1016/j.jct.2011.08.017)
Values joined by “and” are separate entries in the source; they are usually repeats but may differ in a detail not shown here. Identical values can stand only once.

Columns and labels:
[1] = Molar enthalpy of transition or fusion; conditions: Crystal; DSC
[2] = for Normal melting temperature: DTA

c1c[nH]cn1 [1H-imidazole]
Conditions | Molar enthalpy of transition or fusion [kcal/mol]
[1] | 3.13

[2]
Conditions | vapor or sublimation pressure [kPa]
303.99 K, Crystal, Closed cell (Static) method | 0.00058
306.97 K, Crystal, Closed cell (Static) method | 0.00079
309.99 K, Crystal, Closed cell (Static) method | 0.00108
312.98 K, Crystal, Closed cell (Static) method | 0.00145
315.94 K, Crystal, Closed cell (Static) method | 0.00195
318.92 K, Crystal, Closed cell (Static) method | 0.00263
321.97 K, Crystal, Closed cell (Static) method | 0.0035
324.96 K, Crystal, Closed cell (Static) method | 0.00469
327.95 K, Crystal, Closed cell (Static) method | 0.00621
330.92 K, Crystal, Closed cell (Static) method | 0.00819
333.9 K, Crystal, Closed cell (Static) method | 0.01063
333.9 K, Metastable liquid, Closed cell (Static) method | 0.01485
336.88 K, Crystal, Closed cell (Static) method | 0.01377
336.89 K, Metastable liquid, Closed cell (Static) method | 0.01859
339.86 K, Crystal, Closed cell (Static) method | 0.01782
339.86 K, Metastable liquid, Closed cell (Static) method | 0.02311
342.84 K, Crystal, Closed cell (Static) method | 0.02289
342.84 K, Metastable liquid, Closed cell (Static) method | 0.02848
345.81 K, Metastable liquid, Closed cell (Static) method | 0.03509
345.83 K, Crystal, Closed cell (Static) method | 0.02923
348.8 K, Crystal, Closed cell (Static) method | 0.03701
348.8 K, Metastable liquid, Closed cell (Static) method | 0.04297
351.75 K, Metastable liquid, Closed cell (Static) method | 0.05222
351.77 K, Crystal, Closed cell (Static) method | 0.04693
354.75 K, Crystal, Closed cell (Static) method | 0.0592
354.76 K, Metastable liquid, Closed cell (Static) method | 0.06354
357.72 K, Crystal, Closed cell (Static) method | 0.07394
357.72 K, Metastable liquid, Closed cell (Static) method | 0.07682
360.69 K, Metastable liquid, Closed cell (Static) method | 0.09288
363.67 K, Closed cell (Static) method, Liquid | 0.1112
366.66 K, Closed cell (Static) method, Liquid | 0.1336
369.63 K, Closed cell (Static) method, Liquid | 0.1596
372.6 K, Closed cell (Static) method, Liquid | 0.1912
375.56 K, Closed cell (Static) method, Liquid | 0.2249
378.51 K, Closed cell (Static) method, Liquid | 0.2655
381.51 K, Closed cell (Static) method, Liquid | 0.3134
384.48 K, Closed cell (Static) method, Liquid | 0.3688

Conditions | Normal melting temperature [°C]
[2], Crystal | 86.2

Clc1nc[nH]c1Cl [4,5-dichloroimidazole]
Conditions | Molar enthalpy of transition or fusion [kcal/mol]
[1] | 4.21

[2], Crystal, Closed cell (Static) method
Conditions | vapor or sublimation pressure
337.91 K | 0.00048 kPa
339.87 K | 0.00059 kPa
341.87 K | 0.00072 kPa
341.88 K | 0.00071 kPa
343.83 K | 0.00086 kPa
345.84 K | 0.00104 kPa
345.85 K | 0.00104 kPa
347.81 K | 0.00125 kPa
349.81 K | 0.00148 kPa and 0.00151 kPa
351.78 K | 0.0018 kPa
355.75 K | 0.00258 kPa
357.73 K | 0.00306 kPa
359.72 K | 0.00366 kPa
361.71 K | 0.00434 kPa
363.69 K | 0.00513 kPa
365.67 K | 0.00607 kPa
367.66 K | 0.00722 kPa
369.64 K | 0.00841 kPa
371.62 K | 0.00998 kPa
373.6 K | 0.01172 kPa
375.6 K | 0.01368 kPa
377.56 K | 0.01597 kPa
379.54 K | 0.0184 kPa
381.52 K | 0.02175 kPa
383.45 K | 0.02487 kPa
385.49 K | 0.02923 kPa
387.38 K | 0.03334 kPa
389.45 K | 0.03896 kPa
391.33 K | 0.04433 kPa
393.4 K | 0.05168 kPa
395.37 K | 0.0589 kPa

Conditions | Normal melting temperature [°C]
[2], Crystal | 183.6

Cn1cnc(C#N)c1C#N [1-methyl-1H-imidazole-4,5-dicarbonitrile]
Conditions | Molar enthalpy of transition or fusion [kcal/mol]
[1] | 3.54

[2]
Conditions | vapor or sublimation pressure [kPa]
337.86 K, Crystal, Closed cell (Static) method | 0.00034
339.38 K, Crystal, Closed cell (Static) method | 0.00039
340.86 K, Crystal, Closed cell (Static) method | 0.00046
342.35 K, Crystal, Closed cell (Static) method | 0.00053
343.84 K, Crystal, Closed cell (Static) method | 0.00061
345.33 K, Crystal, Closed cell (Static) method | 0.0007
346.81 K, Crystal, Closed cell (Static) method | 0.00082
348.31 K, Crystal, Closed cell (Static) method | 0.00094
349.78 K, Crystal, Closed cell (Static) method | 0.00107
351.29 K, Crystal, Closed cell (Static) method | 0.00124
352.76 K, Crystal, Closed cell (Static) method | 0.00142
354.26 K, Crystal, Closed cell (Static) method | 0.00163
355.73 K, Crystal, Closed cell (Static) method | 0.00186
355.76 K, Metastable liquid, Closed cell (Static) method | 0.00198
357.23 K, Crystal, Closed cell (Static) method | 0.00212
357.23 K, Metastable liquid, Closed cell (Static) method | 0.00221
358.72 K, Crystal, Closed cell (Static) method | 0.00242
358.77 K, Metastable liquid, Closed cell (Static) method | 0.00249
360.71 K, Metastable liquid, Closed cell (Static) method | 0.00284
362.59 K, Closed cell (Static) method, Liquid | 0.0033
364.68 K, Closed cell (Static) method, Liquid | 0.00381
366.64 K, Closed cell (Static) method, Liquid | 0.0044
368.64 K, Closed cell (Static) method, Liquid | 0.00506
370.6 K, Closed cell (Static) method, Liquid | 0.00584
372.61 K, Closed cell (Static) method, Liquid | 0.0067
374.56 K, Closed cell (Static) method, Liquid | 0.00765
376.58 K, Closed cell (Static) method, Liquid | 0.00875
378.53 K, Closed cell (Static) method, Liquid | 0.01
380.52 K, Closed cell (Static) method, Liquid | 0.01138
382.49 K, Closed cell (Static) method, Liquid | 0.01298
384.5 K, Closed cell (Static) method, Liquid | 0.01474
386.44 K, Closed cell (Static) method, Liquid | 0.01668
388.45 K, Closed cell (Static) method, Liquid | 0.01889
390.43 K, Closed cell (Static) method, Liquid | 0.02143
392.4 K, Closed cell (Static) method, Liquid | 0.0241
394.36 K, Closed cell (Static) method, Liquid | 0.02715
396.35 K, Closed cell (Static) method, Liquid | 0.0304
398.31 K, Closed cell (Static) method, Liquid | 0.03419
400.31 K, Closed cell (Static) method, Liquid | 0.03815
402.27 K, Closed cell (Static) method, Liquid | 0.04273
404.27 K, Closed cell (Static) method, Liquid | 0.04766
406.23 K, Closed cell (Static) method, Liquid | 0.05325

Conditions | Normal melting temperature [°C]
[2], Crystal | 87.1

Cn1ccnc1 [1-methylimidazole]
Conditions | Molar enthalpy of transition or fusion [kcal/mol]
[1] | 2.94

[2]
Conditions | vapor or sublimation pressure [kPa]
255.52 K, Crystal, Closed cell (Static) method | 0.00122
256.47 K, Metastable liquid, Closed cell (Static) method | 0.00184
256.5 K, Crystal, Closed cell (Static) method | 0.00139
257.48 K, Crystal, Closed cell (Static) method | 0.00157
257.48 K, Metastable liquid, Closed cell (Static) method | 0.00204
258.55 K, Metastable liquid, Closed cell (Static) method | 0.00226
258.57 K, Crystal, Closed cell (Static) method | 0.00177
259.5 K, Metastable liquid, Closed cell (Static) method | 0.00249
259.53 K, Crystal, Closed cell (Static) method | 0.00201
260.46 K, Metastable liquid, Closed cell (Static) method | 0.00273
260.48 K, Crystal, Closed cell (Static) method | 0.00225
261.42 K, Metastable liquid, Closed cell (Static) method | 0.00301
261.45 K, Crystal, Closed cell (Static) method | 0.00255
262.38 K, Metastable liquid, Closed cell (Static) method | 0.0033
262.41 K, Crystal, Closed cell (Static) method | 0.00277
263.36 K, Metastable liquid, Closed cell (Static) method | 0.00362
263.37 K, Crystal, Closed cell (Static) method | 0.00317
264.36 K, Crystal, Closed cell (Static) method | 0.00356
265.16 K, Metastable liquid, Closed cell (Static) method | 0.00425
265.35 K, Crystal, Closed cell (Static) method | 0.004
267.28 K, Metastable liquid, Closed cell (Static) method | 0.00515
269.27 K, Metastable liquid, Closed cell (Static) method | 0.00618
271.23 K, Closed cell (Static) method, Liquid | 0.00739
273.22 K, Closed cell (Static) method, Liquid | 0.00866
275.16 K, Closed cell (Static) method, Liquid | 0.01042
277.18 K, Closed cell (Static) method, Liquid | 0.01215
281.14 K, Closed cell (Static) method, Liquid | 0.01675
285.09 K, Closed cell (Static) method, Liquid | 0.02306
287.07 K, Closed cell (Static) method, Liquid | 0.02725
289.06 K, Closed cell (Static) method, Liquid | 0.03146
291.04 K, Closed cell (Static) method, Liquid | 0.03655
293.04 K, Closed cell (Static) method, Liquid | 0.04224
295.03 K, Closed cell (Static) method, Liquid | 0.049
297.03 K, Closed cell (Static) method, Liquid | 0.05608
298.98 K, Closed cell (Static) method, Liquid | 0.06498
300.98 K, Closed cell (Static) method, Liquid | 0.07451
302.96 K, Closed cell (Static) method, Liquid | 0.0852
304.98 K, Closed cell (Static) method, Liquid | 0.09635

Conditions | Normal melting temperature [°C]
[2], Crystal | -4.5

N#Cc1nc[nH]c1C#N [4,5-dicyanoimidazole]
Conditions | Molar enthalpy of transition or fusion [kcal/mol]
[1] | 5.4

[2], Crystal, Calculated from knudsen effusion weight loss
Conditions | vapor or sublimation pressure
383.16 K | 0.000153 kPa and 0.00015 kPa
385.16 K | 0.000182 kPa and 0.000184 kPa and 0.000183 kPa
387.12 K | 0.000223 kPa and 0.000222 kPa
389.16 K | 0.000267 kPa and 0.000264 kPa
391.16 K | 0.000325 kPa
393.12 K | 0.000386 kPa and 0.000383 kPa and 0.000389 kPa
395.16 K | 0.000462 kPa and 0.000464 kPa
397.16 K | 0.000556 kPa
399.14 K | 0.000668 kPa and 0.000664 kPa and 0.000666 kPa
401.16 K | 0.000791 kPa and 0.000782 kPa and 0.000796 kPa
403.15 K | 0.000954 kPa and 0.000931 kPa and 0.000932 kPa

Conditions | Normal melting temperature [°C]
[2], Crystal | 176

Cn1cnc(Cl)c1Cl [4,5-dichloro-1-methyl-1H-imidazole]
Conditions | Molar enthalpy of transition or fusion [kcal/mol]
[1] | 4.06

[2]
Conditions | vapor or sublimation pressure [kPa]
288.03 K, Crystal, Closed cell (Static) method | 0.00048
290.06 K, Crystal, Closed cell (Static) method | 0.0006
292.08 K, Crystal, Closed cell (Static) method | 0.00076
294.06 K, Crystal, Closed cell (Static) method | 0.00096
296.06 K, Crystal, Closed cell (Static) method | 0.0012
298.04 K, Crystal, Closed cell (Static) method | 0.00149
300.05 K, Crystal, Closed cell (Static) method | 0.00185
302.01 K, Crystal, Closed cell (Static) method | 0.00231
303.99 K, Crystal, Closed cell (Static) method | 0.00286
306.02 K, Crystal, Closed cell (Static) method | 0.00352
307.96 K, Crystal, Closed cell (Static) method | 0.0043
309.97 K, Crystal, Closed cell (Static) method | 0.00527
311.98 K, Crystal, Closed cell (Static) method | 0.00646
313.95 K, Crystal, Closed cell (Static) method | 0.00782
315.93 K, Crystal, Closed cell (Static) method | 0.00957
317.91 K, Crystal, Closed cell (Static) method | 0.01164
319.99 K, Crystal, Closed cell (Static) method | 0.01413
322 K, Crystal, Closed cell (Static) method | 0.01693
323.97 K, Crystal, Closed cell (Static) method | 0.02049
325.97 K, Crystal, Closed cell (Static) method | 0.02463
329.93 K, Metastable liquid, Closed cell (Static) method | 0.03434
331.93 K, Closed cell (Static) method, Liquid | 0.03936
333.9 K, Closed cell (Static) method, Liquid | 0.04506
335.89 K, Closed cell (Static) method, Liquid | 0.05151
337.88 K, Closed cell (Static) method, Liquid | 0.05882
339.87 K, Closed cell (Static) method, Liquid | 0.06701
341.86 K, Closed cell (Static) method, Liquid | 0.07636
343.84 K, Closed cell (Static) method, Liquid | 0.08631
345.82 K, Closed cell (Static) method, Liquid | 0.09809
347.8 K, Closed cell (Static) method, Liquid | 0.1106
349.78 K, Closed cell (Static) method, Liquid | 0.1248

Conditions | Normal melting temperature [°C]
[2], Crystal | 57.0
